Where a SMILES comes first, the peptide text is derived from it. [ ]: non-standard residue; d: D form. Dolaproine = CO[C@@H]([C@@H]1CCCN1)[C@@H](C)C(=O)O; Dil = CC[C@H](C)[C@H](NC)[C@@H](CC(=O)O)OC; NMeV = CN[C@H](C(=O)O)C(C)C
Legend:
Format in all cases: cell-based, human
OPM2 cells = assay: CellTiter-Glo cell viability, OPM2 (normal serum); conditions: OPM2 cells, 6 days; for LD50 / GI50: CellTiter-Glo; for GI50: read-out: GI50; for RminAve: negative = cell death vs T0
AMO-1 cells = assay: 6-day CellTiter-Glo cell viability, AMO-1; conditions: AMO1 cells, 6 days; for LD50 / GI50: CellTiter-Glo; for GI50: read-out: GI50; for RminAve: negative = cell death vs T0
KMS-11 cells = assay: 6-day CellTiter-Glo cell viability, KMS-11; conditions: KMS11 cells, 6 days; for LD50 / GI50: CellTiter-Glo; for GI50: read-out: GI50; for RminAve: negative = cell death vs T0
RPMI-8226 cells = assay: 6-day CellTiter-Glo cell viability, RPMI-8226; conditions: RPMI8226 cells, 6 days; for LD50 / GI50: CellTiter-Glo; for GI50: read-out: GI50; for RminAve: negative = cell death vs T0
MM1.S cells = assay: CellTiter-Glo cell viability, MM1.S; conditions: MM1S cells, 6 days; for LD50 / GI50: CellTiter-Glo; for GI50: read-out: GI50; for RminAve: negative = cell death vs T0
MM1.R cells = assay: CellTiter-Glo cell viability, MM1.R; conditions: MM1R cells, 6 days; for LD50 / GI50: CellTiter-Glo; for GI50: read-out: GI50; for RminAve: negative = cell death vs T0
U266B1 cells = assay: 6-day CellTiter-Glo cell viability, U266B1; conditions: U266B1 cells, 6 days; for LD50 / GI50: CellTiter-Glo; for GI50: read-out: GI50; for RminAve: negative = cell death vs T0
NCI-H929 cells = assay: CellTiter-Glo cell viability, NCI-H929 (normal serum); conditions: NCIH929 cells, 6 days; for LD50 / GI50: CellTiter-Glo; for GI50: read-out: GI50; for RminAve: negative = cell death vs T0
EJM cells = assay: 6-day CellTiter-Glo cell viability, EJM; conditions: EJM cells, 6 days; for LD50 / GI50: CellTiter-Glo; for GI50: read-out: GI50; for RminAve: negative = cell death vs T0
MOLP8 cells = assay: CellTiter-Glo cell viability, MOLP8; conditions: MOLP8 cells, 6 days; for LD50 / GI50: CellTiter-Glo; for GI50: read-out: GI50; for RminAve: negative = cell death vs T0
LP-1 cells = assay: 6-day CellTiter-Glo cell viability, LP-1; conditions: LP1 cells, 6 days; for LD50 / GI50: CellTiter-Glo; for GI50: read-out: GI50; for RminAve: negative = cell death vs T0

Q: Which results are given for CC[C@H](C)[C@@H]([C@@H](CC(=O)N1CCC[C@H]1[C@H](OC)[C@@H](C)C(=O)N[C@@H](Cc1ccccc1)C(=O)O)OC)N(C)C(=O)[C@@H](NC(=O)[C@@H](NC)C(C)C)C(C)C [MMAF] (H-[NMeV]V[Dil][Dolaproine]F-OH)?
A: AUC (nM * % relative viability) (OPM2 cells): 740.134 nM * % relative viability; LD50 (OPM2 cells): 723.9832 nM; GI50 (OPM2 cells): 348 nM; RminAve (OPM2 cells): −99.7203%; AUC (nM * % relative viability) (AMO-1 cells): 640.894 nM * % relative viability; LD50 (AMO-1 cells): 243.7059 nM; GI50 (AMO-1 cells): 101 nM; RminAve (AMO-1 cells): −99.5356%; AUC (nM * % relative viability) (KMS-11 cells): 706.6578 nM * % relative viability; LD50 (KMS-11 cells): 490.3828 nM; GI50 (KMS-11 cells): 235 nM; RminAve (KMS-11 cells): −98.8009%; AUC (nM * % relative viability) (RPMI-8226 cells): 714.2788 nM * % relative viability; LD50 (RPMI-8226 cells): 557.1533 nM; GI50 (RPMI-8226 cells): 224 nM; RminAve (RPMI-8226 cells): −95.3537%; AUC (nM * % relative viability) (MM1.S cells): 726.0671 nM * % relative viability; LD50 (MM1.S cells): 615.7256 nM; GI50 (MM1.S cells): 296 nM; RminAve (MM1.S cells): −99.8301%; AUC (nM * % relative viability) (MM1.R cells): 721.5643 nM * % relative viability; LD50 (MM1.R cells): 584.6173 nM; GI50 (MM1.R cells): 281 nM; RminAve (MM1.R cells): −99.7818%; AUC (nM * % relative viability) (U266B1 cells): 661.824 nM * % relative viability; LD50 (U266B1 cells): 192.3371 nM; GI50 (U266B1 cells): 67.8 nM; RminAve (U266B1 cells): −89.2656%; AUC (nM * % relative viability) (NCI-H929 cells): 734.8893 nM * % relative viability; LD50 (NCI-H929 cells): 676.4428 nM; GI50 (NCI-H929 cells): 321 nM; RminAve (NCI-H929 cells): −99.782%; AUC (nM * % relative viability) (EJM cells): 600.0131 nM * % relative viability; LD50 (EJM cells): 194.3761 nM; GI50 (EJM cells): 51.5 nM; RminAve (EJM cells): −98.8551%; AUC (nM * % relative viability) (MOLP8 cells): 788.7538 nM * % relative viability; LD50 (MOLP8 cells): 4689.579 nM; GI50 (MOLP8 cells): 254 nM; RminAve (MOLP8 cells): −58.9492%; AUC (nM * % relative viability) (LP-1 cells): 724.5606 nM * % relative viability; LD50 (LP-1 cells): 761.0403 nM; GI50 (LP-1 cells): 223 nM; RminAve (LP-1 cells): −97.9742%

Q: Which results are given for CC[C@H](O)[C@@H](C)[C@H]1O[C@@H]1C[C@@](C)(O)/C=C/C=C(\C)[C@H]1OC(=O)C[C@H](O)CC[C@@](C)(O)[C@@H](OC(=O)N2CCN(C3CCCCCC3)CC2)/C=C/[C@@H]1C [E7107 (D11)]?
A: AUC (nM * % relative viability) (OPM2 cells): 289.9829 nM * % relative viability; LD50 (OPM2 cells): 4.7541 nM; GI50 (OPM2 cells): 1.67 nM; RminAve (OPM2 cells): −99.6884%; AUC (nM * % relative viability) (AMO-1 cells): 487.7156 nM * % relative viability; LD50 (AMO-1 cells): 50.4287 nM; GI50 (AMO-1 cells): 14.9 nM; RminAve (AMO-1 cells): −96.8372%; AUC (nM * % relative viability) (KMS-11 cells): 382.1527 nM * % relative viability; LD50 (KMS-11 cells): 13.1801 nM; GI50 (KMS-11 cells): 5.03 nM; RminAve (KMS-11 cells): −99.2702%; AUC (nM * % relative viability) (RPMI-8226 cells): 359.1272 nM * % relative viability; LD50 (RPMI-8226 cells): 10.8782 nM; GI50 (RPMI-8226 cells): 3.59 nM; RminAve (RPMI-8226 cells): −99.7762%; AUC (nM * % relative viability) (MM1.S cells): 380.5913 nM * % relative viability; LD50 (MM1.S cells): 18.155 nM; GI50 (MM1.S cells): 3.51 nM; RminAve (MM1.S cells): −99.7761%; AUC (nM * % relative viability) (MM1.R cells): 374.4113 nM * % relative viability; LD50 (MM1.R cells): 16.5876 nM; GI50 (MM1.R cells): 3.33 nM; RminAve (MM1.R cells): −99.831%; AUC (nM * % relative viability) (U266B1 cells): 422.0108 nM * % relative viability; LD50 (U266B1 cells): 18.2733 nM; GI50 (U266B1 cells): 8.76 nM; RminAve (U266B1 cells): −95.1886%; AUC (nM * % relative viability) (NCI-H929 cells): 321.415 nM * % relative viability; LD50 (NCI-H929 cells): 5.836 nM; GI50 (NCI-H929 cells): 2.81 nM; RminAve (NCI-H929 cells): −99.8426%; AUC (nM * % relative viability) (EJM cells): 434.2294 nM * % relative viability; LD50 (EJM cells): 22.175 nM; GI50 (EJM cells): 9.45 nM; RminAve (EJM cells): −99.071%; AUC (nM * % relative viability) (MOLP8 cells): 361.7797 nM * % relative viability; LD50 (MOLP8 cells): 16.8329 nM; GI50 (MOLP8 cells): 2.43 nM; RminAve (MOLP8 cells): −99.6765%; AUC (nM * % relative viability) (LP-1 cells): 313.7701 nM * % relative viability; LD50 (LP-1 cells): 6.2485 nM; GI50 (LP-1 cells): 2.2 nM; RminAve (LP-1 cells): −99.6676%
